Measured values as given in US10059740B2, “Integrin interaction inhibitors for the treatment of cancer” (H. LEE MOFFITT CANCER CENTER AND RESEARCH INSTITUTE, INC., priority 2010, dated 2018).
Starred links: 1 amine or outer side, 2 acyl side, 3 side chain; linkers in the order of their positions; H or OH if unused. Positions of bridges follow the written chain, without caps; N, C: chain ends. Non-standard residues stand in square brackets, D forms with d. Residues, ends and D or L forms follow the SMILES beside them. *: point of attachment. dProlinol(O-CH2CO) = O=C(COC[C@H]1CCCN1[*:1])[*:2]; N(2-Aminoethyl)Gly = O=C(CN(CCN[*:3])[*:1])[*:2]; Nle = CCCC[C@H](N)C(=O)O; Ms = CS(=O)(=O)*

test system: H929 myeloma cells; format: cell-based; conditions: 24 h
Procedure: H929 cells were treated for 24 hours with varying concentrations of peptide. Cell death was measured by Topro-3 staining and FACS analysis. The IC50 values were obtained from linear regression analysis and an average value was obtained from 3 independent experiments.
Table 4 legend: Structure activity relationship in H929 myeloma cells of cyclic INTEGRIN INTERACTION INHIBITORS derivatives. The minimal bioactive core sequence of INTEGRIN INTERACTION INHIBITORS WSVVM (SEQ ID NO:85) was cyclized using 2 novel reduced amide bond beta turn promoters and KLKLK (SEQ ID NO:27) as the non-recognition sequence. H929 cells were treated with varying concentrations of the indicated peptide for 24 h. Cell viability was determined using Topro-3 staining and FACS analysis after drug treatment. IC50 values were generated from linear regressions generated from the dose response curves (n=mean of 3 independent experiments).
Using combinatorial peptide libraries and a functional binding assay, several peptides have been identified that inhibited α2β1 and α6β1 integrin mediated adhesion of prostate cancer cells to fibronectin, laminin and collagen IV.^1 They identified an all D-amino acid containing peptide referred as HYD1 ([…]) (SEQ ID NO:278) that blocks binding of epithelial prostate carcinoma cells to extracellular matrix components.^2,3 Hazlehurst and co-workers have truncated the N- and C-termini and alanine scan studies identified MVISW (SEQ ID NO:279) as the likely core region of linear D-HYD1 required for biological activity. […] The pentapeptide (KLKLK) (SEQ ID NO:27) was selected as the non-recognition strand to improve the solubility. N- to C-terminus cyclization of linear peptides was done to restrict the number of conformations available to the linear peptide which increases the affinity of the cyclized peptide for its target when the constraint stabilizes the bound conformation of the peptide. We synthesized cyclic D-HYD1 using a novel methylsulfonamide aminoethyl glycine linker T1 that connects two anti-parallel strands. […] The inverso- (peptide 2, Table 4) and partially modified retro-inverso (PMRI) (peptide 10) pentapeptide sequences of the recognition strand of cyclic III (Integrin Interaction Inhibitors also known as cyclic L-HYD1) peptide analogs were subsequently investigated for their potential to block beta integrin mediated cell adhesion. The retro-inverso design of biologically active peptides is a well-known strategy to design all D-amino acid peptides from potentially bioactive all L-peptide sequences with increased stability^4-7.
A colony forming assay was used to compare induced cell death in H929 multiple myeloma cells. Cells were treated with integrin interaction inhibitors, shown in FIG. 5 and Table 4, and cell death was measured following 24 hour peptide treatment by TOPRO-3 staining and FACS analysis.

| SMILES | IC50 [µM] |
| --- | --- |
| CSCC[C@@H]1NC(=O)[C@H](C(C)C)NC(=O)[C@H](C(C)C)NC(=O)[C@H](CO)NC(=O)[C@H](Cc2c[nH]c3ccccc23)NC(=O)CN(S(C)(=O)=O)CCNC(=O)[C@H](CCCCN)NC(=O)[C@H](CC(C)C)NC(=O)[C@H](CCCCN)NC(=O)[C@H](CC(C)C)NC(=O)[C@H](CCCCN)NC(=O)CN(S(C)(=O)=O)CCNC1=O [III 8] | 6.7 |
| CCCC[C@@H]1NC(=O)[C@H](C(C)C)NC(=O)[C@H](C(C)C)NC(=O)[C@H](C)NC(=O)[C@H](Cc2c[nH]c3ccccc23)NC(=O)CN(S(C)(=O)=O)CCNC(=O)[C@H](CCCCN)NC(=O)[C@H](CC(C)C)NC(=O)[C@H](CCCCN)NC(=O)[C@H](CC(C)C)NC(=O)[C@H](CCCCN)NC(=O)CN(S(C)(=O)=O)CCNC1=O [Peptide 11, KLKLKT1WAVVN*T1] | 12 |
| CC(C)C[C@@H]1NC(=O)[C@H](CCCCN)NC(=O)CN(S(C)(=O)=O)CCNC(=O)[C@H](C)NC(=O)[C@H](C(C)C)NC(=O)[C@H](C(C)C)NC(=O)[C@H](C)NC(=O)[C@H](Cc2c[nH]c3ccccc23)NC(=O)CN(S(C)(=O)=O)CCNC(=O)[C@H](CCCCN)NC(=O)[C@H](CC(C)C)NC(=O)[C@H](CCCCN)NC1=O [Peptide 12, KLKLKT1WAVVAT1] | 69 |
| CCCC[C@@H]1NC(=O)[C@H](C(C)C)NC(=O)[C@H](C)NC(=O)[C@H](C)NC(=O)[C@H](Cc2c[nH]c3ccccc23)NC(=O)CN(S(C)(=O)=O)CCNC(=O)[C@H](CCCCN)NC(=O)[C@H](CC(C)C)NC(=O)[C@H](CCCCN)NC(=O)[C@H](CC(C)C)NC(=O)[C@H](CCCCN)NC(=O)CN(S(C)(=O)=O)CCNC1=O [Peptide 14, KLKLKT1WAAVN*T1] | 41 |
| CCCC[C@@H]1NC(=O)[C@H](C(C)C)NC(=O)[C@H](C(C)C)NC(=O)[C@H](C)NC(=O)[C@H](C)NC(=O)CN(S(C)(=O)=O)CCNC(=O)[C@H](CCCCN)NC(=O)[C@H](CC(C)C)NC(=O)[C@H](CCCCN)NC(=O)[C@H](CC(C)C)NC(=O)[C@H](CCCCN)NC(=O)CN(S(C)(=O)=O)CCNC1=O [Peptide 15, KLKLKT1AAVVN*T1] | 3 |
| CCCC[C@@H]1NC(=O)CN(S(C)(=O)=O)CCNC(=O)[C@H](CCCCN)NC(=O)[C@H](CC(C)C)NC(=O)[C@H](CCC(N)=O)NC(=O)[C@H](CC(C)C)NC(=O)[C@H](CCCCN)NC(=O)COC[C@H]2CCCN2C(=O)[C@H](Cc2c[nH]c3ccccc23)NC(=O)[C@H](C)NC(=O)[C@H](C(C)C)NC(=O)[C@H](C(C)C)NC1=O [Peptide 17, KLKQKT1N*VVAWT3] (Ms-[N(2-Aminoethyl)Gly][Nle]VVAW[dProlinol(O-CH2CO)]KLQLK; lactam 1-C) | 13 |
| CCCC[C@@H]1NC(=O)CN(S(C)(=O)=O)CCNC(=O)[C@H](CCC(N)=O)NC(=O)[C@H](CC(C)C)NC(=O)[C@H](CCCCN)NC(=O)[C@H](CC(C)C)NC(=O)[C@H](CCCCN)NC(=O)COC[C@H]2CCCN2C(=O)[C@H](Cc2c[nH]c3ccccc23)NC(=O)[C@H](C)NC(=O)[C@H](C(C)C)NC(=O)[C@H](C(C)C)NC1=O [Peptide 19, KLKLQT1N*VVAWT3] (Ms-[N(2-Aminoethyl)Gly][Nle]VVAW[dProlinol(O-CH2CO)]KLKLQ; lactam 1-C) | 19 |

same assay, conditions: H929 cells

| SMILES | fold more potent than the parent linear HYD1 peptide [fold] |
| --- | --- |
| CSCC[C@@H]1NC(=O)CN(S(C)(=O)=O)CCNC(=O)[C@H](CCCCN)NC(=O)[C@H](CC(C)C)NC(=O)[C@H](CCCCN)NC(=O)[C@H](CC(C)C)NC(=O)[C@H](CCCCN)NC(=O)CN(S(C)(=O)=O)CCNC(=O)[C@H](Cc2c[nH]c3ccccc23)NC(=O)[C@H](CO)NC(=O)[C@H](C(C)C)NC(=O)[C@H](C(C)C)NC1=O [III 1] | 2.5 |

same assay, conditions: H929 cells, 24 hours, Topro-3 and FACS; read-out: IC50 value in H929 cells

| SMILES | IC50 [µM] |
| --- | --- |
| CCCC[C@@H]1NC(=O)CN(S(C)(=O)=O)CCNC(=O)[C@H](CCCCN)NC(=O)[C@H](CC(C)C)NC(=O)[C@H](CCCCN)NC(=O)[C@H](CC(C)C)NC(=O)[C@H](CCCCN)NC(=O)COC[C@H]2CCCN2C(=O)[C@H](Cc2c[nH]c3ccccc23)NC(=O)[C@H](C)NC(=O)[C@H](C(C)C)NC(=O)[C@H](C(C)C)NC1=O [Peptide 16, KLKLKT1N*VVAWT3] (Ms-[N(2-Aminoethyl)Gly][Nle]VVAW[dProlinol(O-CH2CO)]KLKLK; lactam 1-C) | 1 |

same assay, conditions: SAR discussion of Table 8

| SMILES | bioactivity of cyclic III peptide analogs, in words |
| --- | --- |
| CSCC[C@@H]1NC(=O)CN(S(C)(=O)=O)CCNC(=O)[C@H](CCCCN)NC(=O)[C@H](CC(C)C)NC(=O)[C@H](CCCCN)NC(=O)[C@H](CC(C)C)NC(=O)[C@H](CCCCN)NC(=O)CN(S(C)(=O)=O)CCNC(=O)[C@H](Cc2c[nH]c3ccccc23)NC(=O)[C@H](C)NC(=O)[C@H](C(C)C)NC(=O)[C@H](C(C)C)NC1=O [Peptide 4, KLKLKT1MVVAWT1] | significantly improved the bioactivity |
| CCCC[C@@H]1NC(=O)CN(S(C)(=O)=O)CCNC(=O)[C@H](CCCCN)NC(=O)[C@H](CC(C)C)NC(=O)[C@H](CCCCN)NC(=O)[C@H](CC(C)C)NC(=O)[C@H](CCCCN)NC(=O)CN(S(C)(=O)=O)CCNC(=O)[C@H](Cc2c[nH]c3ccccc23)NC(=O)[C@H](CO)NC(=O)[C@H](C(C)C)NC(=O)[C@H](C(C)C)NC1=O [Peptide 8, KLKLKT1N*VVSWT1] | further increase of the peptide's bioactivity |
| CCCC[C@@H]1NC(=O)[C@H](C(C)C)NC(=O)[C@H](C(C)C)NC(=O)[C@H](C)NC(=O)[C@H](C)NC(=O)CN(S(C)(=O)=O)CCNC(=O)[C@H](CCCCN)NC(=O)[C@H](CC(C)C)NC(=O)[C@H](CCCCN)NC(=O)[C@H](CC(C)C)NC(=O)[C@H](CCCCN)NC(=O)CN(S(C)(=O)=O)CCNC1=O [Peptide 15, KLKLKT1AAVVN*T1] | unexpected improvement in bioactivity |

same assay, conditions: alanine scan and analogs, Table 4 legend, H929 cells

| SMILES | change in activity relative to the inverso peptide L-cINTEGRIN INTERACTION INHIBITORS |
| --- | --- |
| CSCC[C@@H]1NC(=O)CN(S(C)(=O)=O)CCNC(=O)[C@H](CCCCN)NC(=O)[C@H](CC(C)C)NC(=O)[C@H](CCCCN)NC(=O)[C@H](CC(C)C)NC(=O)[C@H](CCCCN)NC(=O)CN(S(C)(=O)=O)CCNC(=O)[C@H](C)NC(=O)[C@H](CO)NC(=O)[C@H](C(C)C)NC(=O)[C@H](C(C)C)NC1=O [III 2] | decrease in activity |
| CSCC[C@@H]1NC(=O)CN(S(C)(=O)=O)CCNC(=O)[C@H](CCCCN)NC(=O)[C@H](CC(C)C)NC(=O)[C@H](CCCCN)NC(=O)[C@H](CC(C)C)NC(=O)[C@H](CCCCN)NC(=O)CN(S(C)(=O)=O)CCNC(=O)[C@H](Cc2c[nH]c3ccccc23)NC(=O)[C@H](C)NC(=O)[C@H](C(C)C)NC(=O)[C@H](C(C)C)NC1=O [III 3] | increase in activity |
| CSCC[C@@H]1NC(=O)CN(S(C)(=O)=O)CCNC(=O)[C@H](CCCCN)NC(=O)[C@H](CC(C)C)NC(=O)[C@H](CCCCN)NC(=O)[C@H](CC(C)C)NC(=O)[C@H](CCCCN)NC(=O)CN(S(C)(=O)=O)CCNC(=O)[C@H](Cc2c[nH]c3ccccc23)NC(=O)[C@H](CO)NC(=O)[C@H](C)NC(=O)[C@H](C(C)C)NC1=O [III 4] | decrease in activity |
| CSCC[C@@H]1NC(=O)CN(S(C)(=O)=O)CCNC(=O)[C@H](CCCCN)NC(=O)[C@H](CC(C)C)NC(=O)[C@H](CCCCN)NC(=O)[C@H](CC(C)C)NC(=O)[C@H](CCCCN)NC(=O)CN(S(C)(=O)=O)CCNC(=O)[C@H](Cc2c[nH]c3ccccc23)NC(=O)[C@H](CO)NC(=O)[C@H](C(C)C)NC(=O)[C@H](C)NC1=O [III 5] | increase in activity |
| CC(C)C[C@@H]1NC(=O)[C@H](CCCCN)NC(=O)CN(S(C)(=O)=O)CCNC(=O)[C@H](Cc2c[nH]c3ccccc23)NC(=O)[C@H](CO)NC(=O)[C@H](C(C)C)NC(=O)[C@H](C(C)C)NC(=O)[C@H](C)NC(=O)CN(S(C)(=O)=O)CCNC(=O)[C@H](CCCCN)NC(=O)[C@H](CC(C)C)NC(=O)[C@H](CCCCN)NC1=O [III 6] | decrease in activity |
| CCCC[C@@H]1NC(=O)CN(S(C)(=O)=O)CCNC(=O)[C@H](CCCCN)NC(=O)[C@H](CC(C)C)NC(=O)[C@H](CCCCN)NC(=O)[C@H](CC(C)C)NC(=O)[C@H](CCCCN)NC(=O)CN(S(C)(=O)=O)CCNC(=O)[C@H](Cc2c[nH]c3ccccc23)NC(=O)[C@H](CO)NC(=O)[C@H](C(C)C)NC(=O)[C@H](C(C)C)NC1=O [III 7] | increase in activity |
| CSCC[C@@H]1NC(=O)[C@H](C(C)C)NC(=O)[C@H](C(C)C)NC(=O)[C@H](CO)NC(=O)[C@H](Cc2c[nH]c3ccccc23)NC(=O)CN(S(C)(=O)=O)CCNC(=O)[C@H](CCCCN)NC(=O)[C@H](CC(C)C)NC(=O)[C@H](CCCCN)NC(=O)[C@H](CC(C)C)NC(=O)[C@H](CCCCN)NC(=O)CN(S(C)(=O)=O)CCNC1=O [III 8] | increases in activity |

same assay, conditions: cyclic III peptide analogs, Table 8; H929 cells, TOPRO 3; read-out: IC50

| SMILES | IC50 [µM] |
| --- | --- |
| CCCC[C@@H]1NC(=O)[C@H](C)NC(=O)[C@H](C(C)C)NC(=O)[C@H](C)NC(=O)[C@H](Cc2c[nH]c3ccccc23)NC(=O)CN(S(C)(=O)=O)CCNC(=O)[C@H](CCCCN)NC(=O)[C@H](CC(C)C)NC(=O)[C@H](CCCCN)NC(=O)[C@H](CC(C)C)NC(=O)[C@H](CCCCN)NC(=O)CN(S(C)(=O)=O)CCNC1=O [Peptide 13, KLKLKT1WAVAN*T1] | 26 |
